We go through 17 compounds from patent US20090270397A1, “Methods and compositions for the treatment of cancers, such as melanomas and gliomas” (priority 2008, published 2009).

Some results are limits rather than exact numbers.

One data set concerns melanoma cells. Description: Antifolate agents as enhancers of TMZ, MTT assay (FIG. 7). It counts as cell-based. The note with it: 0.01 uM antifolate in combination with TMZ, 72 h. The method, then: FIG. 7 is a graph presenting the results of tests of several antifolate agents as enhancers of anti-neoplastic activity. […] Cells were treated with the indicated dose of TMZ alone, or in combination with 0.01 uM PYR, MTX (Methotrexate), TMP (Trimethoprim), TMTX (Trimetrexate), PTX (Piritrexim), and CYC (Cycloguanil). Cell growth was assessed by MTT assay after 72 h drug treatment.
Among the six “hits” identified from library screening, both PYR and triamterene are antifolate compounds.
(Tetrazolium dyes change colour on reduction, which living cells bring about.)

The next data set has as its system SK-MEL 19 cells. Description: MTT cell proliferation/viability assay in SK-MEL 19 melanoma cells. It counts as cell-based, human. The note with it: for sensitization to TMZ (effect on TMZ response curve): SK-MEL 19 cells. The method, then:
Dose-response diagrams of SKM-19 cells exposed to TMZ (FIG. 2A) or pyrimethamine (PYR) (FIG. 2B) alone were prepared for comparison. Melanoma cells were exposed to the indicated concentration of TMZ or PYR for 72 hours. Cell growth inhibition was evaluated by the MTT assay. Survival relative to the control is presented as mean±standard error of the mean of at least three experiments (with viability of control cells set at 100%). In FIG. 2C, PYR enhances TMZ efficacy in various cancer cell lines. Cells were treated with indicated concentrations of TMZ or PYR at the same time and left for 72 hours. Cell viability was determined by MTT assay. SK-MeI 19, SK-Mel 100, SK-Mel 173, and SK-Mel 192 are melanoma cell lines; LN-18 and T98G are glioma cell lines. * P<0.05, **P<0.01.
(§1) FIGS. 8A-8C. PYR antifolate activity enhances TMZ chemotherapeutic efficacy. A, the growth inhibitory effects of PYR, DDEP, DDMP, CYC, and the classical antifolate MTX on TMZ response curve were examined by MTT assay in melanoma and glioma cells. […] The cytotoxic effect of the combination of TMZ (25 μg/ml) and PYR (0.5 μM) can be rescued by LV (10 μM) as examined by MTT assay (B) and the level of cleaved PARP (C) in SK-MEL 19 cells. 1. Control; 2. TMZ; 3. PYR; 4. TMZ+PYR; and 5. TMZ+PYR+LV. ** P<0.01, compared to 2, 3, or 5.
(§2) The cell growth and cytotoxicity after treatment with TMZ and/or PYR on melanoma cells and glioma cells was performed using Colorimetric MTT assay for cell survival and proliferation assay (MTT Assay Kit, Promega). Tumor cells were seeded at 3000 cells per well (100 μl volume) in 96-well plates and allowed to attach overnight. After TMZ and PYR treatment for 72 hours, the cells were stained with MTT, which is then converted to dark blue formazan crystals by mitochondrial dehydrogenases in viable cells. The plates were read with a microplate reader by measuring the absorbance of converted MTT at 490 nm. Results were expressed as the OD490 relative to that of untreated cells. Cell viability was also determined by the trypan-blue dye exclusion method.

Data set [1] relates to cleaved PARP in SK-MEL 19 cells. Description: Leucovorin rescue, cleaved PARP level. The settings on record: 10 μM LV added to cells treated with TMZ/PYR. In kind it is cell-based, human. The procedure: as §1
Leucovorin (N-5-formyltetrahydrofolate, LV, folinic acid), a reduced form of folate, is used widely to specifically reverse the toxic effects of antifolates (27). To further confirm that PYR-enhanced TMZ chemotherapeutic efficacy in melanoma cells was due to the antifolate activity of PYR, 10 μM LV was added to cells treated with TMZ/PYR. LV rescued both the inhibition of cell growth (FIG. 8B) and the increase in apoptotic death induced by TMZ/PYR as measured by the proteolytic cleavage of PARP by caspase-3 (FIG. 8C).

Data set [2] can be described thus: Further antifolate agents as enhancers of temozolomide activity (FIGS. 9 and 10). It counts as cell-based. The settings on record: FIG. 9. The method, then:
FIG. 9 is a further graph presenting the results of tests of several antifolate agents as enhancers of anti-neoplastic activity. In the figure, N1 is pterin-6-carboxylic acid, N2 is aminopterin, N3 is amiloride and N4 is N,N-hexamethylene amiloride.
FIG. 10 presents further data from the testing of additional agents for use in accordance with the invention. Thus, TMZ was administered in combination with compounds S1-S14. The compounds tested are as follows: S1-dipyridamole. S2-methotrexate, S3-minoxidil, S4-prazosin hydrochloride, S5-pyrimethamine, S6-triamterene, S7-trimethoprim, S8-aminopterin, S9-pipemidic acid, S10-piromidic acid, S11-famciclovir, S12-alfuzocin, S13-xanthopterin, and S14-leucopterin.
In FIGS. 9 and 10, additional antifolate agents were tested, and the results indicating their activity as enhancers of TMZ activity are set forth.

For data set [3] the following is noted: cited from earlier work.
In data set [4] the test system is human melanoma cell line SK-MEL 19. Description: Screening of Spectrum Collection library for enhancers of TMZ-induced growth inhibition (MTT assay). In kind it is cell-based. The note with it: SK-MEL19, 1 μM compound in presence of 50 μg/ml TMZ, 96-well plates, read-out: greater growth inhibition relative to TMZ alone. The procedure:
FIGS. 1A and 1B. […] Screening was performed with SK-Mel-19 cells in 96-well plates following by MTT assay. Cells in one set of plate were treated with each library compound alone at 1 μM while cells in the parallel plate were treated with a combination of 1 μM library compound and 50 μg/ml TMZ. Positive candidates were later reconfirmed in triplicate.
A commercial library of 2000 drugs and natural products was screened to identify novel compounds that enhance TMZ-induced growth inhibition in the human melanoma cell line SK-MEL 19. Screening was performed in 96-well plates at final compound concentration of 1 μM, in the absence or presence of 50 μg/ml TMZ, followed by MTT assay (FIG. 1A).

The test system of another data set is SK-MEL 19. Briefly: Cell death by trypan blue dye exclusion. It counts as cell-based, human. The settings on record: clinically-relevant concentration of TMZ, PYR 0.5 μM, 72 hours. The procedure:
Melanoma cells were exposed to the indicated concentration of TMZ, PYR or both for 72 hours. In FIG. 5A, cell death was evaluated by trypan blue dye exclusion. * P<0.05, compared to 2 or 3. In FIG. 5B, cleaved Caspase-3 was determined by Western blot analysis. 1. Control; 2. TMZ (25 μg/ml); 3. PYR (0.5 μM), and 4. TMZ and PYR combination.
as §2
To investigate whether PYR can enhance the induction of cell death by TMZ, Trypan blue staining was employed to determine the ratio of dead cells versus total cells in SK-MEL 19. […]

The conditions of data set [5]: cited from earlier work. The source holds these as a separate data set.

In general, inhibition refers to the relative decrease from the control value, in per cent. One may read the IC50 as the point on the concentration scale where inhibition reaches its midpoint.

On to `CC1(C)N=C(N)N=C(N)N1c1ccc(Cl)cc1` [CYC, cycloguanil], for which the “enhancement of TMZ efficacy” value with melanoma cells is “enhance TMZ efficacy”.

For `CCc1nc(N)nc(N)c1-c1ccc(Cl)c(Cl)c1` [DDEP, etoprine], the “sensitization to TMZ (effect on TMZ response curve)” value (shortened to “sensitization to TMZ”) with SK-MEL 19 cells (0.005 μM antifolate, MTT) is “significant sensitization to TMZ”.

As for `Cc1nc(N)nc(N)c1-c1ccc(Cl)c(Cl)c1` [DDMP, metoprine], in the data set on SK-MEL 19 cells (0.005 μM antifolate, MTT), the “sensitization to TMZ” value was “significant sensitization to TMZ”. As for `Nc1nc2c(c(=O)[nH]1)N(C=O)C(CNc1ccc(C(=O)N[C@@H](CCC(=O)O)C(=O)O)cc1)CN2` (some centres unmarked) [LV, N-5-formyltetrahydrofolate], the “rescue of increase in apoptotic death induced by TMZ/PYR (proteolytic cleavage of PARP)” value in data set [1] is given as “rescued”. Besides, the “rescue of inhibition of cell growth induced by TMZ/PYR” value with SK-MEL 19 cells (10 μM LV added to cells treated with TMZ (25 μg/ml)/PYR (0.5 μM), MTT) was “rescued”. Consider `CN(Cc1cnc2nc(N)nc(N)c2n1)c1ccc(C(=O)N[C@@H](CCC(=O)O)C(=O)O)cc1` [MTX, methotrexate], for which the “sensitization to TMZ” value with SK-MEL 19 cells (0.001 μM antifolate, MTT) is listed as “significant sensitization to TMZ”. For the same compound, the “enhancement of TMZ efficacy” value with melanoma cells is “enhance TMZ efficacy”.

With `Nc1nc2ncc(C(=O)O)nc2c(=O)[nH]1` [N1, pterin-6-carboxylic acid], the “enhancement of the antineoplastic activity of temozolomide” value (“enhancement … of temozolomide” below) in data set [2] is on record as “favorable enhancement”. For `N=C(N)NC(=O)c1nc(Cl)c(N)nc1N` [N3, amiloride], in data set [2], the “enhancement … of temozolomide” value is “favorable enhancement”. Take `NC(N)=NC(=O)c1nc(Cl)c(N2CCCCCC2)nc1N` [N4, N,N-hexamethylene amiloride]: in data set [2], the “enhancement … of temozolomide” value is given as “favorable enhancement”. Consider `COc1ccc(OC)c(Cc2cnc3nc(N)nc(N)c3c2C)c1` [PTX, Piritrexim], for which, in the data set with melanoma cells, the “enhancement of TMZ efficacy” value was “enhance TMZ efficacy”.

As for `CCc1nc(N)nc(N)c1-c1ccc(Cl)cc1` [PYR, pyrimethamine], the blood-brain barrier crossing result in data set [3] (in vivo) was “easily crosses the blood-brain barrier”. The oral bioavailability result in data set [3] (oral administration) is on record as “bioavailable following oral administration”. For the same compound, in data set [4], the inhibition at 1 µM was at least 50%. On to `COc1cc(Cc2cnc(N)nc2N)cc(OC)c1OC` [TMP, Trimethoprim], for which, in the data set with melanoma cells, the “enhancement of TMZ efficacy” value is given as “enhance TMZ efficacy”.

With `COc1cc(NCc2ccc3nc(N)nc(N)c3c2C)cc(OC)c1OC` [TMTX, Trimetrexate], in the data set on melanoma cells, the “enhancement of TMZ efficacy” value was “enhance TMZ efficacy”.

With `Cn1nnc2c(C(N)=O)ncn2c1=O` [TMZ, temozolomide], in the data set on SK-MEL 19 cells (Homo sapiens, SK-MEL19, TMZ alone, SK-MEL-19 cells), the IC50 is about 60 µg/mL. In addition, the “cell death (ratio of dead cells versus total cells)” value in the data set with SK-MEL 19 is recorded as “approximately 15%”. The “clinically achievable serum levels during chemotherapy” value in data set [5] was 100 µM. Take `S=C=NCc1ccccc1` [benzyl isothiocyanate]: the inhibition at 1 µM in data set [4] is at least 50%. For `[H]/N=C(\N/C(=N/[H])NCCCCCCNC(=N)NC(=N)Nc1ccc(Cl)cc1)Nc1ccc(Cl)cc1` [chlorhexidine], the inhibition at 1 µM in data set [4] was at least 50%. For `Oc1ccc(Cl)c2cccnc12` [cloxyquin], the inhibition at 1 µM in data set [4] is at least 50%. Regarding `Nc1nc(N)c2nc(-c3ccccc3)c(N)nc2n1` [triamterene], in data set [4], the inhibition at 1 µM is at least 50%.
